Results on 4 compounds are retold here after patent US20180353462A1, “[…] AGENTS […] FLAVONOID DERIVATIVES TARGETING KINASES, SIRTUINS AND ONCOGENIC AGENTS FOR THE TREATMENT OF CANCERS” (priority 2015, published 2018).

One assay relates to DLD-1 (Colon). As to the kind of experiment: WST-1 anticancer cell proliferation assay, DLD-1. The class given is cell-based. The following applies: 72 hours. As for the experimental part:
(§1) Bioactivity of the above-described compounds has been verified by an anticancer cell proliferation assay using the WST-1 (4-[3-(4-iodophenyl)-2-(4-nitrophenyl)-2H-5-tetrazolio]-1, 3-benzene disulfonate) colorimetric assay by Roche Life Sciences®. Anticancer activity was tested against several standard cancer cell lines including brain, breast, Kaposi sarcoma, leukemia, lung, melanoma, tenosynovial giant cell tumor, ovarian, pancreatic, colon and prostate cancer. Cells were trypsinized and plated into 96 well plates in 50 μl of media and incubated overnight. The next day approximately 18 hours after plating, 50 μl of media containing the required flavonoid-based pharmaceutical composition was added per well. Cells were plated at a density so that 72 hours post drug addition, the cells will be in log phase (500)-2000 cells/well). The compounds and extracts were solubilized in Dimethyl sulfoxide (DMSO). The cells are allowed to proliferate for 72 hours 37° C. in humidified atmosphere of 5% CO2. The experiment is terminated using WST-1 (Roche®) 10 μl per well and absorbance is read at 450 nm %690 nm. The effect of drugs on growth is assessed as percent of cell viability. The IC50 values were determined from the extract dose versus control growth curves using Graphpad Prism® software. All experiments were carried out in duplicate and the mean results determined.
(In general: Tetrazolium assays rely on reduction of a dye to a coloured formazan, in cell work by metabolically active cells.)

The test system of another assay is RL (Lymphoma). The assay can be described thus: WST-1 anticancer cell proliferation assay, RL. It counts as cell-based. The following applies: 72 hours. As for the experimental part: as §1
The next assay deals with IGROV-1 (Ovarian). The assay can be described thus: WST-1 anticancer cell proliferation assay, IGROV-1. It counts as cell-based. As to conditions: 72 hours. The method, then:
as §1

In a further assay the test system is PC-3 (Prostate). As to the kind of experiment: WST-1 anticancer cell proliferation assay, PC-3. It counts as cell-based. As to conditions: 72 hours. The method, then: as §1
A further assay has as its system MiaPaca-2 (Pancreatic). The assay can be described thus: WST-1 anticancer cell proliferation assay, MiaPaca-2. It counts as cell-based. The following applies: 72 hours. As for the experimental part: as §1
In another assay the test system is A549 (Lung). As to the kind of experiment: WST-1 anticancer cell proliferation assay, A549. It counts as cell-based. As to conditions: 72 hours. The method, then: as §1
A further assay concerns UACC-62 (Melanoma). The assay can be described thus: WST-1 anticancer cell proliferation assay, UACC-62. It counts as cell-based. The following applies: 72 hours. The method, then: as §1
The next assay deals with COLO-205 (Colon). As to the kind of experiment: WST-1 anticancer cell proliferation assay, COLO-205. It counts as cell-based. As to conditions: 72 hours. As for the experimental part: as §1
The test system of the next assay is A498 (Kidney). As to the kind of experiment: WST-1 anticancer cell proliferation assay, A498. As to conditions: 72 hours. It counts as cell-based. As for the experimental part:
as §1

For another assay, the system named is MCF-7 (Breast). The assay can be described thus: WST-1 anticancer cell proliferation assay, MCF-7. The class given is cell-based. As to conditions: 72 hours. The method, then: as §1
In the next assay the target is BRD2 (Homo sapiens, UniProt P25440). The assay can be described thus: Inhibition of bromodomains, BRD2. As to conditions: Table 3 Bromodomain. The class given is binding. The source says: (§2) Inhibition of Sirtuins, Matrix Metalloproteinase, Bromodomains was Also Confirmed Using Standard Protocols and the Results are Present in Table 2.
Chain of BRD2 (P25440 whole entry): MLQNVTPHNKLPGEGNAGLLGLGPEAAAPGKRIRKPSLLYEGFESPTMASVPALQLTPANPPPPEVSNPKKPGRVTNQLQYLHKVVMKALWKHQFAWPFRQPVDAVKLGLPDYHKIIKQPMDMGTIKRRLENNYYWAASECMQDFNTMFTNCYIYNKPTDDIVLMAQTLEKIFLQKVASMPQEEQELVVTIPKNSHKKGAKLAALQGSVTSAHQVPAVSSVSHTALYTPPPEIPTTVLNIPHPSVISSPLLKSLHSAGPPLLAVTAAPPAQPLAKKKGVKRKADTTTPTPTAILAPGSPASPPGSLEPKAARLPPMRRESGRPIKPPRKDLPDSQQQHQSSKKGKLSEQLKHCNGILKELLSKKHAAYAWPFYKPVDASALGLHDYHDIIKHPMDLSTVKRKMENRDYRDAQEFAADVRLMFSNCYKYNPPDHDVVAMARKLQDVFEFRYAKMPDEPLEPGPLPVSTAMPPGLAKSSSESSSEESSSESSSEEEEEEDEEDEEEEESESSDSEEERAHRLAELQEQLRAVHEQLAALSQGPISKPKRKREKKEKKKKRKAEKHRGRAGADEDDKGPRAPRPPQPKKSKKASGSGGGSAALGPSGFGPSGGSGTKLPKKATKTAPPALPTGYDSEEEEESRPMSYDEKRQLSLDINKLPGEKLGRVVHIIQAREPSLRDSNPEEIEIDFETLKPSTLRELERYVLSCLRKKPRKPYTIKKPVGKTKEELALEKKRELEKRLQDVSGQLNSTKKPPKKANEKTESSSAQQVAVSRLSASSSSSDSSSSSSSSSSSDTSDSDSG
For a further assay, the system named is MOLT-4 (Leukemia). As to the kind of experiment: WST-1 anticancer cell proliferation assay, MOLT-4. The class given is cell-based. The following applies: 72 hours. As for the experimental part: as §1
For another assay, the system named is CMK (leukemia). The assay can be described thus: WST-1 anticancer cell proliferation assay, CMK. It counts as cell-based. The following applies: 72 hours. The method, then: as §1
The next assay has as its target MMP-2 (Homo sapiens, UniProt P08253). The assay can be described thus: Inhibition of matrix metalloproteinase, MMP-2. The following applies: Table 3 Matrix metalloproteinase. The class given is biochemical.
Description: as §2

The subject of a further assay is HeLa (cervical). The assay can be described thus: WST-1 anticancer cell proliferation assay, HeLa. The class given is cell-based. As to conditions: 72 hours. The method, then:
as §1

The next assay concerns the target MMP-7 (Homo sapiens, UniProt P09237). As to the kind of experiment: Inhibition of matrix metalloproteinase, MMP-7. As to conditions: Table 3 Matrix metalloproteinase. It counts as biochemical.
Description: as §2

Assay [1] deals with CFPAC-1 pancreatic cancer xenograft. The assay can be described thus: Human pancreatic cancer xenograft CFPAC-1 in scid mice. The following applies: CFPAC-1 cells implanted on scid mice. The class given is in vivo. The source says: The results of the anticancer activity are presented in Tables 3 and 4 (above) and in FIG. 6, Hela cells shown at (A) and CMK cells at (B) and MV4-11 and MOLT-14 acute myeloid leukemia cells.
For orientation: A xenograft is tissue or cells of one species grown in another, often human tumour cells in immunodeficient mice.

Another assay has as its target BRD3 (Homo sapiens, UniProt Q15059). The assay can be described thus: Inhibition of bromodomains, BRD3. It counts as binding. The following applies: Table 3 Bromodomain.
Description: as §2

A further assay deals with HC-1 (Leukemia). As to the kind of experiment: WST-1 anticancer cell proliferation assay, HC-1. The class given is cell-based. As to conditions: 72 hours. The method, then: as §1
A further assay has as its system U2-OS (Bone). The assay can be described thus: WST-1 anticancer cell proliferation assay, U2-OS. The class given is cell-based. The following applies: 72 hours. As for the experimental part: as §1
The target in another assay is BRD4 (Homo sapiens, UniProt O60885). As to the kind of experiment: Inhibition of bromodomains, BRD4. It counts as binding. As to conditions: Table 3 Bromodomain.
Description: as §2

A further assay deals with SNU-16 (Stomach). The assay can be described thus: WST-1 anticancer cell proliferation assay, SNU-16. It counts as cell-based. As to conditions: 72 hours. As for the experimental part:
as §1

The next assay deals with MMP-9 (Homo sapiens, UniProt P14780). As to the kind of experiment: Inhibition of matrix metalloproteinase, MMP-9. It counts as biochemical. The following applies: Table 3 Matrix metalloproteinase.
Chain of MMP-9 (P14780 94-707): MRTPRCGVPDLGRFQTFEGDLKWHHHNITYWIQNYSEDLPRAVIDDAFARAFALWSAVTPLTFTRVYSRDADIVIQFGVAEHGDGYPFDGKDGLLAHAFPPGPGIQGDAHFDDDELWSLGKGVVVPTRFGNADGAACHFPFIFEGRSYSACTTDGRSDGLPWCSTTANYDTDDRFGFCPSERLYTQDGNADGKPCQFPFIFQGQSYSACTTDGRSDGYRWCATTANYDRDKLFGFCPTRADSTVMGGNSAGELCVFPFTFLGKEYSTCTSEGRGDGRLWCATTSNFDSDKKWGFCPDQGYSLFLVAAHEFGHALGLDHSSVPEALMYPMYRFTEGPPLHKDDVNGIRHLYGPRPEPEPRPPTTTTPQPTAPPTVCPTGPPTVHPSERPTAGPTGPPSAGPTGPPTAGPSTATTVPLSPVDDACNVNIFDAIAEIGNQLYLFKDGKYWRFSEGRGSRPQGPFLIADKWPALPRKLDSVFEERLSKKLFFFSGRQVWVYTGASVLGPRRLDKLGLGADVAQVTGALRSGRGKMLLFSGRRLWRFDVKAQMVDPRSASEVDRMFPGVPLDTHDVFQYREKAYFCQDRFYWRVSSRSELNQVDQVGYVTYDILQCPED
Description: as §2

For the next assay, the target named is MMP-3 (Homo sapiens, UniProt P08254). As to the kind of experiment: Inhibition of matrix metalloproteinase, MMP-3. The class given is biochemical. As to conditions: Table 3 Matrix metalloproteinase.
Chain of MMP-3 (P08254 100-477): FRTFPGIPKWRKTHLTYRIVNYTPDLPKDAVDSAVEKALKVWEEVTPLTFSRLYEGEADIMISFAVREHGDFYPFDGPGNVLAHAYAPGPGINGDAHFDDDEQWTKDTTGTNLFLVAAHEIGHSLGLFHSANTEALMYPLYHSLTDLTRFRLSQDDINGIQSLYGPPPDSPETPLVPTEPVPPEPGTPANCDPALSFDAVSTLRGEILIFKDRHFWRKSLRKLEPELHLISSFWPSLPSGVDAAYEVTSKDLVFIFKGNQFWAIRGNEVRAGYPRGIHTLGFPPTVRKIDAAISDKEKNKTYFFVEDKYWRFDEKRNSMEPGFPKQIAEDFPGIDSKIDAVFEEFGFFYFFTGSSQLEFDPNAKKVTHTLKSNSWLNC
Description: as §2

The target of the next assay is BCL-2 (Homo sapiens, UniProt P10415). As to the kind of experiment: BCL-2 inhibition. As to conditions: Table 3. The class given is binding.
Chain of BCL-2 (P10415 whole entry): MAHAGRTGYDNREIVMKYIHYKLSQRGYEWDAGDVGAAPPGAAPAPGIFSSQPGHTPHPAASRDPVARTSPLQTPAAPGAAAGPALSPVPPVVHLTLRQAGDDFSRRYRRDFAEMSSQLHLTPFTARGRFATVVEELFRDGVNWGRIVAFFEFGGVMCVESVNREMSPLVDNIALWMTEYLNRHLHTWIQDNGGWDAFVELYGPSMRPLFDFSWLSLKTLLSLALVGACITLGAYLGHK

Chain of BRD3 (Q15059 whole entry): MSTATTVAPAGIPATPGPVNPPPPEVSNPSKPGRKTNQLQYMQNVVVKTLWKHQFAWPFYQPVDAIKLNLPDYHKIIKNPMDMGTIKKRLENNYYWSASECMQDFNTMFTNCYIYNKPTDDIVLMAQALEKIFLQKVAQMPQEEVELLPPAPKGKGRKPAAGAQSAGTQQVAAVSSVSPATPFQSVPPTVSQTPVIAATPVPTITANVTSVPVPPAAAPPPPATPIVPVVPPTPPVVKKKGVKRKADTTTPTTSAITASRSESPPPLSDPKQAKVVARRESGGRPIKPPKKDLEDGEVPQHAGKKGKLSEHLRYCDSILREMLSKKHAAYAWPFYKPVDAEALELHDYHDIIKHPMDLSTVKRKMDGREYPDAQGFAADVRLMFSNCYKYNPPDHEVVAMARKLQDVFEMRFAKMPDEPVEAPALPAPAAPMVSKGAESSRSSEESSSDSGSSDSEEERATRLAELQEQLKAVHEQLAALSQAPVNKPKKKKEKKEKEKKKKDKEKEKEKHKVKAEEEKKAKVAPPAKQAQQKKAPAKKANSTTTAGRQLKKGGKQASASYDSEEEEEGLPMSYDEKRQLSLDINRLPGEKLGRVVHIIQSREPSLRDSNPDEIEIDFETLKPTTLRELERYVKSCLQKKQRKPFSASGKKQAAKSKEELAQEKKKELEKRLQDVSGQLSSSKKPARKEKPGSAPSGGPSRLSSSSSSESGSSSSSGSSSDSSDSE
Chain of MMP-7 (P09237 95-267): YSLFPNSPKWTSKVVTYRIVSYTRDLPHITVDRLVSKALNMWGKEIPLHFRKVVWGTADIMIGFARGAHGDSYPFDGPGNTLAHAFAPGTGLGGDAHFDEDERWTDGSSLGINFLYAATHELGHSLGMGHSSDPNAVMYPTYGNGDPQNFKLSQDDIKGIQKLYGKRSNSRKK
Chain of MMP-2 (P08253 110-660): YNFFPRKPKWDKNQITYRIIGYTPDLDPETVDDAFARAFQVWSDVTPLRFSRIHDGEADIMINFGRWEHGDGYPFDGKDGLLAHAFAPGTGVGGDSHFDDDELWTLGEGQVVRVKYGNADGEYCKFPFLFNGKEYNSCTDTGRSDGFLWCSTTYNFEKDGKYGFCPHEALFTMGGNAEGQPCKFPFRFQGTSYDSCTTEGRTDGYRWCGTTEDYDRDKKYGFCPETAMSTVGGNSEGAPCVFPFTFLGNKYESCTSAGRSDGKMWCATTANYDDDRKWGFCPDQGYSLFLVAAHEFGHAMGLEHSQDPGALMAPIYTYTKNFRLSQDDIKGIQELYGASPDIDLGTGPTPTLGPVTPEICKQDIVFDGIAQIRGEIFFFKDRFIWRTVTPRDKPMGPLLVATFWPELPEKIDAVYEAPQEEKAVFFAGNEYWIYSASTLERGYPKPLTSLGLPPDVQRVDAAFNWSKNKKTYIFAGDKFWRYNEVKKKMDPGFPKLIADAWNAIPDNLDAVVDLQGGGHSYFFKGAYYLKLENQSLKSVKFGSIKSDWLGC

Broadly, the IC50 is the concentration that inhibits the measured activity by half. A high value points to weaker potency in that assay. For `COc1cc(-c2cc(=O)c3c(O)c(C/C=C(\C)CCC=C(C)C)c(O)cc3o2)ccc1O` [FBL-03A], the IC50 in the assay with DLD-1 (Colon) turned out to be 15 µM; in the assay with RL (Lymphoma), 5.9 µM; with IGROV-1 (Ovarian) it was 29 µM; with PC-3 (Prostate), 26 µM; in the assay with MiaPaca-2 (Pancreatic), 16 µM; with A549 (Lung), 17 µM. The IC50 in the assay on UACC-62 (Melanoma) turned out to be 27 µM; with COLO-205 (Colon), 27 µM; in the assay on A498 (Kidney), 17 µM; with MCF-7 (Breast), 17 µM.

With `COc1cc(-c2cc(=O)c3c(O)c(CC=C(C)C)c(O)cc3o2)ccc1O` [FBL-03B], the half-inhibitory concentration (IC50) at BRD2 is 9.52 µM; with MOLT-4 (Leukemia) it was 13.2 µM; with CMK (leukemia) it was 11.6 µM; against MMP-2, 115 µM; in the assay on HeLa (cervical), 10.4 µM; at MMP-7, 17.5 µM. In addition, the IC50 was found to be 7.05 µM at BRD3; 29.7 µM in the assay on HC-1 (Leukemia); 19.4 µM with U2-OS (Bone); 10.4 µM against BRD4; 15 µM in the assay with SNU-16 (Stomach). Further, the “inhibition of tumor compared to the control” value in assay [1] was “significant inhibition of tumor”.

With `COc1cc(-c2cc(=O)c3c(O)cc(O)c(C/C=C(\C)CCC=C(C)C)c3o2)ccc1O` [FBL-03C], the IC50 in the assay with DLD-1 (Colon) is 13 µM; in the assay with RL (Lymphoma), 12 µM; in the assay with IGROV-1 (Ovarian), 15 µM; in the assay with PC-3 (Prostate), 20 µM; in the assay with MiaPaca-2 (Pancreatic), 9.5 µM; in the assay on A549 (Lung), 9.4 µM. Also, the IC50 in the assay on UACC-62 (Melanoma) was determined as 14 µM; with COLO-205 (Colon) it was 17 µM; in the assay with A498 (Kidney) it was 14 µM; in the assay on MCF-7 (Breast) it was 12 µM.

Consider `COc1cc(-c2cc(=O)c3c(O)cc(O)c(CC=C(C)C)c3o2)ccc1O` [FBL-03G], for which the IC50 is 12 µM against BRD2; 20 µM in the assay on MOLT-4 (Leukemia); 1.78 µM in the assay on CMK (leukemia); 6.64 µM against MMP-2; 85.4 µM on MMP-9; 2.53 µM in the assay with HeLa (cervical). The half-maximal inhibitory concentration (IC50) came to 66.3 µM against MMP-3; 2.49 µM on BCL-2; 3.35 µM against MMP-7; 8.69 µM against BRD3; 5 µM in the assay with HC-1 (Leukemia); 8.7 µM in the assay with U2-OS (Bone). Besides, the half-maximal inhibitory concentration (IC50) came to 6.14 µM against BRD4 and 4.09 µM in the assay with SNU-16 (Stomach). In addition, in [1], the “inhibition of tumor compared to the control” value is “significant inhibition of tumor”.
